Read-outs that look alike come from different tables or passages of the source.

Data set [1] in a line: Measured logD (shake flask). The note with it: for mLogD: octanol/PBS. Format: physicochemical.
The next data set concerns the target PfPKG (Plasmodium falciparum, UniProt Q8I719). Nature of the data set: biochemical. The note with it: for LLE (pIC50 – mLogD): PfPKG pIC50 minus measured logD; for IC50: biochemical assay, read-out: PfPKG pIC50 (converted).
The nature of data set [2]: mouse liver microsomal turnover. Type of data set: in vitro ADME. The note with it: % remaining after 30 min incubation with mouse liver microsomes. The procedure:
Microsomal turnover data was obtained using mouse liver microsomes (MLM) obtained from BD Biosciences. The compounds are pre-incubated at 37 °C for 5 minutes with the microsomes and the reaction was initiated by adding an equal volume of NADPH generating solution, also obtained from BD Biosciences. The final compound concentration in the incubation is 1 μM, and the microsomal protein concentration is 0.2 mg/mL. A sample is taken at t=0 and quenched with 2x volume of ice-cold methanol containing an internal standard reference compound (carbamazepine). The reaction is agitated at 37 °C for 30 minutes, when a further sample was taken and quenched in an identical fashion. The samples were centrifuged at 10000 rpm for 10 minutes and the supernatant taken for analysis in triplicate by LC-MS/MS (Agilent Technologies G6410 series, triple quadrupole with MM-ESI ion source) using optimised multiple reaction monitoring (MRM) scans and a standard column gradient on an Acquity UPLC BEH C8 1.7μm column, running acetonitrile and water with 0.05% acetic acid as the mobile phase. The % turnover is obtained by calculating the percentage difference of the peak areas, normalised to the internal standard, at t=0 and t=30. Verapamil is used as the standard compound for this assay.

The subject of the next data set is Plasmodium falciparum. Nature of the data set: blood stage hypoxanthine incorporation (HXI) cell assay. The note with it: read-out: Pf HXI pEC50 (converted). Format: cell-based. The source says:
[21] Full details on biochemical assay and anti-malarial hypoxanthine incorporation (cell based) assay procedures can be found in reference 16.

The subject of data set [3] is HepG2 human liver-derived cells. Nature of the data set: in vitro cytotoxicity assay in HepG2 cells. Type of data set: cell-based.
The mark [4] stands for this setting: blood stage hypoxanthine incorporation cell assay.

Chain of PfPKG (Q8I719 whole entry): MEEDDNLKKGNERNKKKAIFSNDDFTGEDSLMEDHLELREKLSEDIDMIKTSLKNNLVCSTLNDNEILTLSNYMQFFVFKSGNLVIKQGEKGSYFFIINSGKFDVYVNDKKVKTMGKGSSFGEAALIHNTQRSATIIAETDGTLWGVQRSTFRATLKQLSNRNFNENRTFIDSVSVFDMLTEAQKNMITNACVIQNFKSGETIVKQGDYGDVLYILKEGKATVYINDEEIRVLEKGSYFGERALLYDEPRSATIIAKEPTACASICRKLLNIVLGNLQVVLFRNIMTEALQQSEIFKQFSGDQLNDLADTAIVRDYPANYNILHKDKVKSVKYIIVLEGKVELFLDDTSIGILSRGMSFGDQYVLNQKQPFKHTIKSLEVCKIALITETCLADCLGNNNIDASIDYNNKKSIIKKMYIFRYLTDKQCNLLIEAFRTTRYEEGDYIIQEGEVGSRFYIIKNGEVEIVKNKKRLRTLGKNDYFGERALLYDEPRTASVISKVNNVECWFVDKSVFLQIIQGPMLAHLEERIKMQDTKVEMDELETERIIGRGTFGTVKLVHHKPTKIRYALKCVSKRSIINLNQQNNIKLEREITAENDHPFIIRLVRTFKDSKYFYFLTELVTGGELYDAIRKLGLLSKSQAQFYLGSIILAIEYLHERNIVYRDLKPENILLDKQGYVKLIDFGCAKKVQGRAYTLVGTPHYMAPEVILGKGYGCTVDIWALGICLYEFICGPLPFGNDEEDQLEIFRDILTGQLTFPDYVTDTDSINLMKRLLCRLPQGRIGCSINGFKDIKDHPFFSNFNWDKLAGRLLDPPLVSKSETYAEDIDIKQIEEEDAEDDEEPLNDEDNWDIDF

For the molecule `CN(C)Cc1ccc2nc(-c3ccc(F)cc3)c(-c3ccnc(N)n3)n2c1` [Compound 16], in data set [1], the mLogD is 2.3. Further, at PfPKG, the “LLE (pIC50 – mLogD)” value is on record as 5.0 and the IC50 was 51.3 nM.

As for `CN1CCN(c2ccc(Nc3nccc(-c4c(-c5ccc(F)cc5)nc5ccccn45)n3)cc2)CC1` [Compound 1], in data set [2], the MLM % rem was found to be 65%. Moreover, the EC50 with Plasmodium falciparum was 115 nM.

`CN(C)Cc1ccn2c(-c3ccnc(N)n3)c(C3CC3)nc2c1` [Compound 9] registered a mLogD in data set [1] of 1.7. Further, at PfPKG, the “LLE (pIC50 – mLogD)” value worked out at 5.8 and the IC50 is 35.5 nM.

In data set [1], `CN(C)Cc1ccn2c(-c3ccnc(Nc4ccccn4)n3)c(C3CC3)nc2c1` [Compound 11] registered a mLogD of 2.5. Besides, the EC50 in the data set on Plasmodium falciparum (setting [4]) is 1740 nM. In addition, the IC50 on PfPKG is 8.71 nM.

Regarding `CC(C)Nc1nccc(-c2c(C3CC3)nc3cc(CN(C)C)ccn23)n1` [Compound 10], in data set [1], the mLogD is given as 3.0. Further, at PfPKG, the “LLE (pIC50 – mLogD)” value is reported as 4.4 and the IC50 was 43.7 nM.

`Cc1nc2cc(CN(C)C)ccn2c1-c1ccnc(N)n1` [Compound 7]: the IC50 at PfPKG is 57.5 nM.

Molecule `CN(C)CCc1ccn2c(-c3ccnc(N)n3)c(-c3ccc(F)cc3)nc2c1` [Compound 29] displayed an MLM % rem in data set [2] of 65%. In addition, the mLogD in data set [1] amounted to 1.9. In addition, in the data set with Plasmodium falciparum (setting [4]), the EC50 was 1000 nM. In addition, at PfPKG, the “LLE (pIC50 – mLogD)” value is 5.8 and the IC50 is 20.4 nM.

As to `CN1CCN(c2ccn3c(-c4ccnc(N)n4)c(-c4ccc(F)cc4)nc3c2)CC1` [Compound 22], the “in vitro cytotoxicity (in words)” value in data set [3] was “did not”. In data set [1], the mLogD stood at 3.1. Moreover, the EC50 in the data set on Plasmodium falciparum (setting [4]) is 263 nM. Moreover, at PfPKG, the “LLE (pIC50 – mLogD)” value worked out at 5.4 and the IC50 was 3.31 nM.

Consider `CN1CCN(c2ccc3nc(-c4ccc(F)cc4)c(-c4ccnc(N)n4)n3c2)CC1` [Compound 23], for which the “in vitro cytotoxicity (in words)” value in data set [3] is recorded as “significant activity”. Further, the mLogD in data set [1] is 2.8. In addition, in the data set with Plasmodium falciparum (setting [4]), the EC50 was 871 nM. At PfPKG, the “LLE (pIC50 – mLogD)” value came out at 5.8 and the IC50 was 2.63 nM.

As to `CN1CCC(Nc2ccn3c(-c4ccnc(N)n4)c(-c4ccc(F)cc4)nc3c2)CC1` [Compound 24], the MLM % rem in data set [2] is 88%. In data set [1], this molecule came in with a mLogD of 2.2. Also, the EC50 in the data set on Plasmodium falciparum (setting [4]) is 347 nM. Further, on PfPKG, the “LLE (pIC50 – mLogD)” value turned out to be 6.2 and the IC50 is 3.63 nM.

`CN(C)Cc1ccn2c(-c3ccnc(Nc4ccc(N5CCN(C)CC5)cc4)n3)c(C3CC3)nc2c1` [Compound 12] registered a mLogD in data set [1] of 2.1. The EC50 in the data set on Plasmodium falciparum (setting [4]) was 112 nM. For the same molecule, on PfPKG, the “LLE (pIC50 – mLogD)” value is 6.0 and the IC50 is 7.24 nM.

In the case of `CN(C)CCCNc1ccc2nc(-c3ccc(F)cc3)c(-c3ccnc(N)n3)n2c1` [Compound 21], the mLogD in data set [1] stood at 2.2. Also, at PfPKG, the “LLE (pIC50 – mLogD)” value is given as 5.7 and the IC50 is 12.6 nM.

`CN1CCC(Nc2ccn3c(-c4ccnc(N)n4)c(-c4ccc(F)cc4)nc3c2)C1` (centres unmarked) [Compound 20] registered a mLogD in data set [1] of 2.1. For the same molecule, the EC50 in the data set with Plasmodium falciparum (setting [4]) was 851 nM. On PfPKG, the “LLE (pIC50 – mLogD)” value amounted to 6.0 and the IC50 was 8.51 nM.

`CN(C)CCNc1ccn2c(-c3ccnc(N)n3)c(-c3ccc(F)cc3)nc2c1` [Compound 26] showed an MLM % rem in data set [2] of 80%. In data set [1], the mLogD stood at 2.1. Further, on PfPKG, the “LLE (pIC50 – mLogD)” value worked out at 6.5 and the IC50 is 2.57 nM.

`CN(C)CCOc1ccn2c(-c3ccnc(N)n3)c(-c3ccc(F)cc3)nc2c1` [Compound 25] gave an MLM % rem in data set [2] of 54%. The molecule also yielded a mLogD in data set [1] of 2.2. Further, in the data set with Plasmodium falciparum (setting [4]), the EC50 is 813 nM. At PfPKG, the “LLE (pIC50 – mLogD)” value stood at 5.9 and the IC50 was 7.41 nM.

Take `CN(C)Cc1cccn2c(-c3ccnc(N)n3)c(-c3ccc(F)cc3)nc12` [Compound 15]: in data set [1] (octanol/phosphate buffered saline (PBS), read-out: mLogD), the logD at 12 h was 1.6. In addition, on PfPKG, the “LLE (pIC50 – mLogD)” value is reported as 5.9 and the IC50 is 29.5 nM.

Consider `CN(C)Cc1ccn2c(-c3ccnc(N)n3)c(C(F)(F)F)nc2c1` [Compound 8], for which the IC50 on PfPKG is 148 nM.

For the origin of these results see article PMC6857626, “Potent bicyclic inhibitors of malarial cGMP-dependent protein kinase: approaches to combining improvements in cell potency, selectivity and structural novelty” (Bioorganic & Medicinal Chemistry Letters, 2019).
